Measured values published in ChEMBL document CHEMBL5241090, “A comprehensive overview of β-carbolines and its derivatives as anticancer agents” (Eur J Med Chem, 2021).
In brackets after ≈: the same amount, converted by molar mass.

Tests used:
L1210 = test: Cytotoxicity against mouse L1210 cells; format: functional, cell-based
SK-OV-3 = test: Antiproliferative activity against human SK-OV-3 cells; format: functional, cell-based
A2780 = test: Antiproliferative activity against human A2780 cells; format: functional, cell-based
HepG2 = test: Cytotoxicity against human HepG2 cells after 48 hrs incubation by SRB assay; format: functional, cell-based; details: HepG2, 48 h
Hep 3B2 = test: Cytotoxicity against human Hep3B cells after 48 hrs incubation by SRB assay; format: functional, cell-based
MCF7 [1] = test: Cytotoxicity against human MCF7 cells; format: functional, cell-based
HCT-116 [2] = test: Cytotoxicity against human HCT-116 cells; format: functional, cell-based
HL-60 = test: Cytotoxicity against human HL-60 cells; format: functional, cell-based; details: Homo sapiens, HL-60; read-out: IC50
KB = test: Cytotoxicity against human KB cells; format: functional, cell-based; details: Homo sapiens, KB; read-out: IC50
L5178Y = test: Cytotoxicity against mouse L5178Y cells incubated 72 hrs; format: functional, cell-based
CNE-2 = test: Cytotoxicity against human CNE-2 cells incubated for 48 hrs by MTT assay; format: functional, cell-based; details: CNE-2, 48 h
MCF7 [3] = test: Cytotoxicity against human MCF7 cells incubated for 48 hrs by neutral red dye based assay; format: functional, cell-based; details: MCF7, 48 h
A549 [4] = test: Cytotoxicity against human A549 cells incubated for 48 hrs by neutral red dye based assay; format: functional, cell-based; details: A549, 48 h
HCT-116 [5] = test: Cytotoxicity against human HCT-116 cells incubated for 48 hrs by neutral red dye based assay; format: functional, cell-based; details: HCT-116, 48 h
[6] = Cytotoxicity against mouse P388 cells; format: functional, cell-based
NCI-H1299 = test: Cytotoxicity against human NCI-H1299 cells; format: functional, cell-based
A549 [7] = test: Cytotoxicity against human A549 cells; format: functional, cell-based
DNA topoisomerase 1 = biological target: T1, DNA topoisomerase 1 (Homo sapiens, UniProt P11387); test: Inhibition of Topoisomerase 1 (unknown origin)
T1 sequence (P11387 whole entry): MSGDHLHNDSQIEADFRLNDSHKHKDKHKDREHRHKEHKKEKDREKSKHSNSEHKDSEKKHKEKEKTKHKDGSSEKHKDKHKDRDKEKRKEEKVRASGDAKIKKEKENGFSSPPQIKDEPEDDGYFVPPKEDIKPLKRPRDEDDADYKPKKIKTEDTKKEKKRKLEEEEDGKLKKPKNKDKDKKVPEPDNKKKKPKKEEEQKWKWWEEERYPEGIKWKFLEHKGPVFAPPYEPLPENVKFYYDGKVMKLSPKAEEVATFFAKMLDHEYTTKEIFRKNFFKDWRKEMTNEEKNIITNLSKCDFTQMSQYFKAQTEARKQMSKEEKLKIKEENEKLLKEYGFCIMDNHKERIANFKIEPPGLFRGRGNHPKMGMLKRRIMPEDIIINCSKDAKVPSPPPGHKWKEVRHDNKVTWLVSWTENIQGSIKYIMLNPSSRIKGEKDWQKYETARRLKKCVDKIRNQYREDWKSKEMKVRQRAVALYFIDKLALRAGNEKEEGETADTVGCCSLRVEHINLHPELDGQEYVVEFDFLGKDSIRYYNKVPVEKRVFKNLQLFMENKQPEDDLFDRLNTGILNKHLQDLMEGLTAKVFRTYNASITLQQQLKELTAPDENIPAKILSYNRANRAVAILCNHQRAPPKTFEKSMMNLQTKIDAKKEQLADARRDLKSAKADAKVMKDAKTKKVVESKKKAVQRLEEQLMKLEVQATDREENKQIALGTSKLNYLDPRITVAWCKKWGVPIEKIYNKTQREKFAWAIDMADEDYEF

Q: With `O[C@H]1[C@H]2[C@@H]3c4[nH]c5ccccc5c4CCN3CN3CCCC/C=C\CC[C@@]45CN(CCCC/C=C\CC[C@@]1(O)[C@H]34)CC[C@@H]25` as the compound, how does the IC50 (L1210) read?
A: 4.4 µg/mL (≈ 7.52 µM)

Q: For `COc1nccc2c1[nH]c1ccccc12`, which IC50 (SK-OV-3) is on record?
A: 22.3 µg/mL

Q: What about the IC50 (A2780) of the same compound?
A: 9.72 µg/mL

Q: With `C=Cc1ncc(OC)c2c1[nH]c1c(O)cccc12` as the compound, how does the IC50 (SK-OV-3) read?
A: 16.3 µM

Q: And the IC50 (A2780)?
A: 8.47 µM

Q: Which IC50 (L1210) does the source give for `O[C@]12C=C(C3NCCc4c3[nH]c3ccccc43)[C@@H]3CCN(CCCC/C=C\CC1)C[C@@]31CC/C=C\CCCCN[C@H]12` (stereo partly specified) here?
A: 1.3 µg/mL (≈ 2.34 µM)

Q: What does the source list for `COc1cnc(C(=O)[C@@H](Cc2nccc3c2[nH]c2ccccc23)OC)c2[nH]c3ccccc3c12`?
A: IC50 (HepG2): 33.9 µM; IC50 (Hep 3B2): > 50 µM

Q: For `CC(C=O)CNc1nccc(-c2nccc3c2[nH]c2ccccc23)n1` (stereo unspecified), which IC50 (MCF7 [1]) is on record?
A: 6.05 µM

Q: What about the IC50 (HCT-116 [2]) of the same compound?
A: 3.35 µM

Q: For `COc1cc(-c2nc(C(=O)N[C@@H](Cc3c[nH]c4ccccc34)C(=O)N[C@@H](Cc3c[nH]c4ccccc34)C(=O)N[C@@H](CCSC)C(=O)OCc3ccccc3)cc3c2[nH]c2ccccc23)ccc1O`, which IC50 (HL-60) is on record?
A: 16 µM

Q: With `Oc1ccc2[nH]c3c(C4=C[C@@]5(O)CC/C=C\CCCCN6CC[C@@H]4[C@@]4(C6)CC67CCC(CCCN6[C@H]45)O7)nccc3c2c1` as the compound, how does the IC50 (KB) read?
A: 7.9 µg/mL (≈ 13.6 µM)

Q: For `Oc1ccc2[nH]c3c(C4=C[C@@]5(O)CC/C=C\CCCCN6CC[C@@H]4[C@]4(CC7/C=C\CCCCN7[C@H]45)C6)nccc3c2c1` (stereo partly specified), which IC50 (KB) is on record?
A: 7.3 µg/mL (≈ 12.9 µM)

Q: Which results are given for `COc1cnc(C(=O)[C@@H](CC(=O)c2nccc3c2[nH]c2ccccc23)OC)c2[nH]c3ccccc3c12`?
A: IC50 (HepG2): > 50 µM; IC50 (Hep 3B2): 31.4 µM

Q: Which EC50 (L5178Y; time 72 hrs, read-out: ED50 (the source's name)) does the source give for `O[C@]12C=C(c3nccc4c3[nH]c3ccccc34)[C@@H]3CCN(CCCC/C=C\CC1)C[C@@]31CC34CCC(CCCN3[C@H]12)O4` here?
A: 1.8 µg/mL (≈ 3.19 µM)

Q: With `COc1ccc2c(c1)NC1C2CCN2C(=O)[C@]34C5Nc6cc(OC)ccc6C5CCN3[C@]12C4(C)C` (stereo partly specified) as the compound, how does the IC50 (HL-60) read?
A: 5.8 µM

Q: With `CNc1nccc(-c2nccc3c2[nH]c2ccccc23)n1` as the compound, how does the IC50 (MCF7 [1]) read?
A: 4.33 µM

Q: And the IC50 (HCT-116 [2])?
A: 2.9 µM

Q: For `COc1ccc2c3c([nH]c2c1)-c1c(C(=O)c2ncc4ccccc4n2)ccn1CC3`, which IC50 (HL-60) is on record?
A: 13.6 µM

Q: Which IC50 (HepG2) does the source give for `COc1cnc(C(=O)[C@H](CC(=O)c2nccc3c2[nH]c2ccccc23)OC)c2[nH]c3ccccc3c12` here?
A: 43.9 µM

Q: And the IC50 (Hep 3B2)?
A: 18.6 µM

Q: With `COc1cnc(C(=O)[C@H](Cc2nccc3c2[nH]c2ccccc23)OC)c2[nH]c3ccccc3c12` as the compound, how does the IC50 (HepG2) read?
A: 27.5 µM

Q: What about the IC50 (Hep 3B2) of the same compound?
A: 46.2 µM

Q: Which results are given for `C=Cc1ncc(OC)c2c1[nH]c1ccccc12`?
A: IC50 (SK-OV-3): 15.7 µg/mL; IC50 (A2780): 4.77 µg/mL

Q: With `COc1c(OC)c2nccc3c4ccccc4n(c1=O)c23` [4,5-DIMETHOXYCANTHIN-6-ONE] as the compound, how does the IC50 (CNE-2) read?
A: 9.86 µg/mL (≈ 35.2 µM)

Q: Which IC50 (MCF7 [3]) does the source give for `Nc1nccc(-c2nccc3c2[nH]c2ccccc23)n1` [ANNOMONTINE] here?
A: 1.21 µg/mL (≈ 4.63 µM)

Q: What about the IC50 (A549 [4]) of the same compound?
A: 1.09 µg/mL (≈ 4.17 µM)

Q: And the IC50 (HCT-116 [5])?
A: 0.42 µg/mL (≈ 1.61 µM)

Q: With `COc1cccc2c1C(=O)c1c(O)c3c(c(O)c1C2=O)C[C@@](O)(C(=O)CO)C[C@@H]3O[C@H]1C[C@H](N)[C@H](O)[C@H](C)O1` [DOXORUBICIN] as the compound, how does the IC50 (HCT-116 [2]) read?
A: 0.39 µM

Q: Which IC50 (KB) does the source give for `CC(C)CC(N)c1nccc2c1[nH]c1cc(Br)ccc12` (stereo unspecified) [EUDISTALBIN A] here?
A: 3.2 µg/mL (≈ 9.63 µM)

Q: For `CN[C@H](CSC)c1nccc2c1[nH]c1ccc(O)c(Br)c12` [EUDISTOMIDIN C], which IC50 (L5178Y; 72 h) is on record?
A: 0.42 µg/mL (≈ 1.15 µM)

Q: With `O[C@]12C=C(c3nccc4c3[nH]c3ccccc34)[C@@H]3CCN(CCCC/C=C\CC1)C[C@@]31C[C@@H]3/C=C\CCCCN3[C@H]12` [MANZAMINE A] as the compound, how does the IC50 [6] read?
A: 0.07 µg/mL (≈ 0.128 µM)

Q: With `C1=C\CC[C@]23CN4CCCC/C=C\CC[C@@]5(O[C@H]5[C@@H](c5nccc6c5[nH]c5ccccc56)[C@@H]2CC4)[C@@H]3NCCCC/1` [MANZAMINE B] as the compound, how does the IC50 [6] read?
A: 6 µg/mL (≈ 10.9 µM)

Q: Which IC50 [6] does the source give for `C1=C\CCCCN(CCc2nccc3c2[nH]c2ccccc23)CCCC/1` [MANZAMINE C] here?
A: 3 µg/mL (≈ 8.63 µM)

Q: Which IC50 (L1210) does the source give for `O[C@]12C=C(c3nccc4c3[nH]c3ccccc34)[C@@H]3CCN(CCCC/C=C\CC1)C[C@@]31CC/C=C\CCCCN[C@H]12` [MANZAMINE J] here?
A: 2.6 µg/mL (≈ 4.72 µM)

Q: With `Oc1ccc2[nH]c3c(C4=C[C@@]5(O)CC/C=C\CCCCN6CC[C@@H]4[C@]4(C[C@@H]7/C=C\CCCCN7[C@H]45)C6)nccc3c2c1` [MANZAMINE Y] as the compound, how does the IC50 (KB) read?
A: 2.5 µg/mL (≈ 4.43 µM)

Q: What about the IC50 (L1210) of the same compound?
A: 1.5 µg/mL (≈ 2.66 µM)

Q: What does the source list for `COc1ccc(CCNC(=O)c2cc3c([nH]c4ccccc43)c(C(C)=O)n2)cc1` [MARINACARBOLINE A]?
A: IC50 (HCT-116 [2]): 24.4 µM; IC50 (NCI-H1299): 24.4 µM; IC50 (A549 [7]): 24.4 µM

Q: With `CC(=O)c1nc(C(=O)NCCc2c[nH]c3ccccc23)cc2c1[nH]c1ccccc12` [MARINACARBOLINE D] as the compound, how does the IC50 (HCT-116 [2]) read?
A: 15 µM

Q: What about the IC50 (NCI-H1299) of the same compound?
A: 15 µM

Q: What about the IC50 (A549 [7]) of the same compound?
A: 15 µM

Q: Which IC50 (DNA topoisomerase 1) does the source give for `c1ccc2c(c1)[nH]c1cnccc12` [NORHARMANE] here?
A: 31 µM
